A short description of one data set: Saturation solubility. The data set is classed as physicochemical. The note with it: water, thermodynamic from solid, ddH2O, 25° C., mean ± SD, BDL: Below detection limit. The protocol:
Samples of 5 mg of compounds were added to 5 ml volumetric flasks containing ddH2O and shaken at 100 rpm in an incubator at 25° C. for 90 minutes. The resulting suspension was filtered through a 0.22 μm filter. The concentrations of compounds were determined spectrophotometrically at 256 nm. The saturation solubility of each sample was determined in triplicates and the mean value and standard deviation were reported.

A further data set relates to NCI-N87. The experiment in a line: In vitro cytotoxicity MTT assay. It is filed as cell-based. The note with it: Homo sapiens, 72 h, IC50 ± SD. The essentials: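 Cells were seeded in 96-well plates at 6×10^3 (MDA-MB-231) or 2.4×10^4 (MDA-MB-453, NCI-N87, SW48). Compound exposure lasted 72 h, after which viability was measured by MTT.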
(In general: Tetrazolium dyes change colour on reduction, which living cells bring about.)

The test system of the next data set is SK-BR-3. The experiment in a line: In vitro cytotoxicity MTT assay. It is filed as cell-based. Particulars: Homo sapiens, 72 h, IC50 ± SD. The essentials:
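Plated 96-well (MDA-MB-231 6×10^3; others 2.4×10^4); treated 72 h; MTT.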

The target of another data set is HDAC3 (Homo sapiens (Human), UniProt O15379). The experiment in a line: HDAC3 enzymatic kinetic assay. Particulars: 2 μM; 20 min, 40 min and 60 min. It is filed as biochemical. As for the experimental part: HDAC3 enzymatic kinetic assay was performed according to standard Protocols (Fluorgenic HDAC3 assay kit, BPS Bioscience™). […] After incubation, assay developer was added to the samples and the absorbance was read at fluorogenic wavelength. The relative inhibition to HDAC3 activity in each sample was determined.

Another data set concerns M10 cells. Nature of the data set: Cell cycle arrest by PI flow cytometry. It is filed as cell-based, human. The note with it: M10, 12.5 μM, 72 h. As for the experimental part: (§1) A PI/RNase staining assay (BD Bioscience™) was performed to reveal the presence of cell cycle arrest and apoptotic cells after treatment with GNTbm compounds, Chidamide and Entinostat. […] After treatment cells were harvested, fixed with 80% ethanol for 24 h, washed with 1×PBS and stained with PI/RNase for 15 min at room temperature. The cells were then analyzed using Flow Cytometer within 1 h.
For orientation: A flow cytometer gives signals particle by particle.

The next data set concerns MDA-MB-231 cells. Nature of the data set: Cell cycle arrest by PI flow cytometry. The data set is classed as cell-based, human. The note with it: MDA-MB-231, 3.125 μM, 72 h. The protocol: as §1
The test system of another data set is SW48 cells. The experiment in a line: Cell cycle arrest by PI flow cytometry. The data set is classed as cell-based, human. Particulars: SW48, 3.125 μM, 72 h. The protocol:
as §1

The next data set addresses HDAC1 (Homo sapiens (Human), UniProt Q13547). The experiment in a line: HDACs 1-11 enzymatic inhibition by BPS Bioscience.
A further data set concerns the target HDAC4 (Homo sapiens (Human), UniProt P56524). The experiment in a line: HDACs 1-11 enzymatic inhibition by BPS Bioscience.
A further data set concerns the target HDAC8 (Homo sapiens (Human), UniProt Q9BY41). Nature of the data set: HDACs 1-11 enzymatic inhibition by BPS Bioscience.

For orientation: solubility means the concentration that dissolves in the medium under given conditions. Usually IC50 stands for the concentration at which inhibition is half-maximal. Low values mean greater potency in that assay, high ones weaker potency in that assay.

≈ marks a conversion by molar mass, not a printed value. Entries after “also recorded” stand apart in the source; their conditions may differ.

Chain of HDAC4 (P56524 whole entry): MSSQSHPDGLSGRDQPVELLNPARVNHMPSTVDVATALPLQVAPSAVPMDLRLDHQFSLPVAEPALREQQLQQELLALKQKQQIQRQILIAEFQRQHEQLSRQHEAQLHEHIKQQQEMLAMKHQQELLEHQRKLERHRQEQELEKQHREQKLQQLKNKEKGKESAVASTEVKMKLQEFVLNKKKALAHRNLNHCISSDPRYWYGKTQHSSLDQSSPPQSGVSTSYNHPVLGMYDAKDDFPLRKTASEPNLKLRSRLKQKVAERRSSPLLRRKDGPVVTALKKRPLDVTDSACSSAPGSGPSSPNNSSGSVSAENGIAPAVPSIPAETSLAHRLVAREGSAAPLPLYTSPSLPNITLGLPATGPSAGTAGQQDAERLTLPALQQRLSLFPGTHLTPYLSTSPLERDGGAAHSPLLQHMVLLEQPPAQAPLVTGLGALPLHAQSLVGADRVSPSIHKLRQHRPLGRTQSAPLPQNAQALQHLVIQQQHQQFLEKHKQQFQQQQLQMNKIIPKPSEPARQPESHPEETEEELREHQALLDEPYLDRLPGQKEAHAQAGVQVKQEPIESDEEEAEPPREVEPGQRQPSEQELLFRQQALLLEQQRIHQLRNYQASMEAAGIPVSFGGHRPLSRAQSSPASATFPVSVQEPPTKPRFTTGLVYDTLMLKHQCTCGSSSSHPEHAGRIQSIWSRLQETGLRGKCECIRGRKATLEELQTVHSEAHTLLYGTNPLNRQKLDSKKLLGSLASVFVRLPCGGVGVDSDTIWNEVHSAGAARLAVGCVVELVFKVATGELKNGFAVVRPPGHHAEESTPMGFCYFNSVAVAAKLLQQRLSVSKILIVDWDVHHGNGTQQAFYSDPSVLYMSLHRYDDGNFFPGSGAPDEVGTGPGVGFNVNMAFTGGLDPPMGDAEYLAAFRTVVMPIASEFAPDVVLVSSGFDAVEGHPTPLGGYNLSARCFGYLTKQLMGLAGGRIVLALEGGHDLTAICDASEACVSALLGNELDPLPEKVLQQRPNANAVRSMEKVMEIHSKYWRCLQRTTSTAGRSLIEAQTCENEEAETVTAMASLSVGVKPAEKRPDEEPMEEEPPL
Chain of HDAC8 (Q9BY41 whole entry): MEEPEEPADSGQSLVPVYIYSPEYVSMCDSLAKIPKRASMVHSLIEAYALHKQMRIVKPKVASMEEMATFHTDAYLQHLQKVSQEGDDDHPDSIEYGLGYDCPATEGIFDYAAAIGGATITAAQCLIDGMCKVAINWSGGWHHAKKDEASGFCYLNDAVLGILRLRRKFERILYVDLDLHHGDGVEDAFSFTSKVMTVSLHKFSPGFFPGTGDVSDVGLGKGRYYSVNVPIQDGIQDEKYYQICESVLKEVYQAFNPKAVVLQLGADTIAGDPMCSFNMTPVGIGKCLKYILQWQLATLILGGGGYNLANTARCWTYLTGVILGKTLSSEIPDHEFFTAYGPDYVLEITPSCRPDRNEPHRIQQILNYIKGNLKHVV
Chain of HDAC3 (O15379 whole entry): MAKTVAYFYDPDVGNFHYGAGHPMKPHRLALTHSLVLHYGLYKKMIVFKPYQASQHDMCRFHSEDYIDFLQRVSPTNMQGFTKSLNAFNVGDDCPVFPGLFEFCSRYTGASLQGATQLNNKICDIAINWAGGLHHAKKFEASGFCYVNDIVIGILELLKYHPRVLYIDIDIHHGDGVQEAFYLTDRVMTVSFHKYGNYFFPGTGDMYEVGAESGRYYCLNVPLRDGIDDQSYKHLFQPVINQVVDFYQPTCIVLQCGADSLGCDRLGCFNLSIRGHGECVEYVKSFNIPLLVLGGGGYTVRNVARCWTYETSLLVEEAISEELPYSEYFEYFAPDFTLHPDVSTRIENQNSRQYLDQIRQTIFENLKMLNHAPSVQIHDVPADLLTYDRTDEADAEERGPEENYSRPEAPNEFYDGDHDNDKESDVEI
Chain of HDAC3 (Q9Y618 395-489 partner): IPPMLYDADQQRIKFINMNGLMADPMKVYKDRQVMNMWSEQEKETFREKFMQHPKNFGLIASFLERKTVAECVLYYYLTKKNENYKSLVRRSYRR
Chain of HDAC1 (Q13547 whole entry): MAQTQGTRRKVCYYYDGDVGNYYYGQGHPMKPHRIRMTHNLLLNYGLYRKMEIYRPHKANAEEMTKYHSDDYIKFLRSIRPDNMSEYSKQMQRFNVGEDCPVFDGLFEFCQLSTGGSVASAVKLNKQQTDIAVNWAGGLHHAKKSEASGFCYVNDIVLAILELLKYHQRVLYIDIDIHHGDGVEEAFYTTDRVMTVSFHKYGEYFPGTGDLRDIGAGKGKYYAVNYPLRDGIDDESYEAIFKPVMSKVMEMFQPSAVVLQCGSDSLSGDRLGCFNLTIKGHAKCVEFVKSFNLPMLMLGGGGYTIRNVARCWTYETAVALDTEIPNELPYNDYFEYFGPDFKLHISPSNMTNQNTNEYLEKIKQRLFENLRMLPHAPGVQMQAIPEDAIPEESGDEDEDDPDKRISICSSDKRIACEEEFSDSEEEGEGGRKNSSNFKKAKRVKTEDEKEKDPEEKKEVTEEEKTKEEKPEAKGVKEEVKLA
Experimental for HDAC1: HDAC assay was performed according to standard Protocols (Fluorgenic HDACs 1-11 assay kit, BPS Bioscience™). […] After 0.5 h, assay developer was added to the samples and the absorbance was read at fluorogenic wavelength. The relative inhibition to HDACs 1, 2, 3, 4, 5, 6, 7, 8, 9, and 11 activities was determined in each sample. […] All of the compounds were dissolved in DMSO. The serial dilution of the compounds was first performed in 100% DMSO with the highest concentration at 1 mM. Each intermediate compound dilution (in 100% DMSO) would then get directly diluted 10× fold into assay buffer for an intermediate dilution of 10% DMSO in HDAC assay buffer and 5 μl of the dilution was added to a 50 μl reaction so that the final concentration of DMSO is 1% in all of the reactions. […] Fluorescence intensity was measured at an excitation of 360 nm and an emission of 460 nm using a Tecan Infinite M1000 microplate reader. […] The fluorescent intensity data were analyzed using the computer software, Graphpad Prism. […] The percent activity in the presence of each compound was calculated according to the following equation: % activity=(F−Fb)/(Ft−Fb), where F=the fluorescent intensity in the presence of the compound. […] The IC50 value was determined by the concentration causing a half-maximal percent activity.
Experimental for HDAC4: (§2) HDAC assay was performed according to standard Protocols (Fluorgenic HDACs 1-11 assay kit, BPS Bioscience™). […] After 0.5 h, assay developer was added to the samples and the absorbance was read at fluorogenic wavelength. The relative inhibition to HDACs 1, 2, 3, 4, 5, 6, 7, 8, 9, and 11 activities was determined in each sample. […] All of the compounds were dissolved in DMSO. The serial dilution of the compounds was first performed in 100% DMSO with the highest concentration at 1 mM. Each intermediate compound dilution (in 100% DMSO) would then get directly diluted 10× fold into assay buffer for an intermediate dilution of 10% DMSO in HDAC assay buffer and 5 μl of the dilution was added to a 50 μl reaction so that the final concentration of DMSO is 1% in all of the reactions. The enzymatic reactions for the HDAC enzymes were conducted in duplicate at 37° C. for 30 minutes in a 50 μl mixture containing HDAC assay buffer, 5 μg BSA, an HDAC substrate, a HDAC enzyme and a test compound. After enzymatic reactions, 50 μl of 2×HDAC Developer was added to each well for the HDAC enzymes and the plate was incubated at room temperature for an additional 15 minutes. Fluorescence intensity was measured at an excitation of 360 nm and an emission of 460 nm using a Tecan Infinite M1000 microplate reader. HDAC activity assays were performed in duplicate at each concentration. The fluorescent intensity data were analyzed using the computer software, Graphpad Prism. In the absence of the compound, the fluorescent intensity (Ft) in each data set was defined as 100% activity. In the absence of HDAC, the fluorescent intensity (Fb) in each data set was defined as 0% activity. The percent activity in the presence of each compound was calculated according to the following equation: % activity=(F−Fb)/(Ft−Fb), where F=the fluorescent intensity in the presence of the compound. […] The IC50 value was determined by the concentration causing a half-maximal percent activity.
Experimental for HDAC8: as §2

Compound `Cc1ccc(/C=C/CC(=O)Nc2ccc(C(=O)Nc3ccc(F)cc3N)nc2)cn1` [GNTbm-02, 5-((E)-4-(6-methylpyridin-3-yl)but-3-enamido)-N-(2-amino-4-fluorophenyl)pyridine-2-carboxamide] had a solubility at 90 min in the data set “Saturation solubility” of 33.6 µg/mL (≈ 82.9 µM). The IC50 in the data set with NCI-N87 is 4.01 ± 0.49 µM; in the data set with SK-BR-3 it was 2000 ± 15 nM; against HDAC1, 390 nM; against HDAC4, over 10 µM; on HDAC8, over 10 µM. Moreover, at HDAC3, the “Inhibition of HDAC 3 enzyme activities (kinetics)” value is on record as “stronger inhibition of HDAC 3 enzyme activities than Entinostat; also recorded: stronger inhibition of HDAC 3 enzyme activities than GNTbm-01”. Moreover, the Cell cycle arrest entry in the data set on M10 cells was “significantly induced cell cycle arrest of M10 cells in the G2/M phase”; with MDA-MB-231 cells it was “significantly induced cell cycle arrest in G0/G1 phase”; in the data set on SW48 cells it was “significantly induced cell cycle arrest in G0/G1 phase”. The “Cells in G2/M phase” value in the data set on M10 cells worked out at 16.2%. Besides, in the data set with SW48 cells, the “Cells in G0/G1 phase” value is 76.9%. In addition, the “HDAC4 Inhibition at 10 μM” value at HDAC4 (10 μM) was “not inhibited; also recorded: No Inhibition at 10 μM”. On HDAC8 (10 μM), the “HDAC8 Inhibition at 10 μM” value was “not inhibited; also recorded: No Inhibition at 10 μM”.
